How the values were obtained:
Test in all cases: KINOMEscan (ScanMAX) kinase profiling
Format in all cases: binding
[1] = biological target: T1, panel of 468 kinases (Homo sapiens, UniProt P14616); details: INSRR; 1 μM; read-out: % control
T1 construct: purchased KINOMEscan (ScanMAX) service

[2] = biological target: T2, panel of 468 kinases (Homo sapiens, UniProt P00533, G719S); details: EGFR(G719S); 1 μM; read-out: % control
T2 construct: purchased KINOMEscan (ScanMAX) service

[3] = biological target: T3, panel of 468 kinases (Homo sapiens, UniProt Q96PN8); details: TSSK3; 1 μM; read-out: % control
T3 construct: purchased KINOMEscan (ScanMAX) service
T3 sequence (Q96PN8 1-268): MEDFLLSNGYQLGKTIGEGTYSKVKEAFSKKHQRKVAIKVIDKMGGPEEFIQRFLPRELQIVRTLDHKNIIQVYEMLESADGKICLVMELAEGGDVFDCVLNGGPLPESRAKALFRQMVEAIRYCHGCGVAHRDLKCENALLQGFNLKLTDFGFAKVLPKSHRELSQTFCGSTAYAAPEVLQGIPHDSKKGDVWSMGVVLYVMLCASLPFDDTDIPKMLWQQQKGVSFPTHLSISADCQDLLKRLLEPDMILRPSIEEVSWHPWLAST

[4] = biological target: T4, panel of 468 kinases (Homo sapiens, UniProt P31749); details: AKT1; 1 μM; read-out: % control
T4 construct: purchased KINOMEscan (ScanMAX) service

[5] = biological target: T5, panel of 468 kinases (Homo sapiens, UniProt Q13464); details: ROCK1; 1 μM; read-out: % control
T5 construct: purchased KINOMEscan (ScanMAX) service

[6] = biological target: T6, panel of 468 kinases (Homo sapiens, UniProt O15111); details: IKK-alpha; 1 μM; read-out: % control
T6 construct: purchased KINOMEscan (ScanMAX) service
T6 sequence (O15111 1-745): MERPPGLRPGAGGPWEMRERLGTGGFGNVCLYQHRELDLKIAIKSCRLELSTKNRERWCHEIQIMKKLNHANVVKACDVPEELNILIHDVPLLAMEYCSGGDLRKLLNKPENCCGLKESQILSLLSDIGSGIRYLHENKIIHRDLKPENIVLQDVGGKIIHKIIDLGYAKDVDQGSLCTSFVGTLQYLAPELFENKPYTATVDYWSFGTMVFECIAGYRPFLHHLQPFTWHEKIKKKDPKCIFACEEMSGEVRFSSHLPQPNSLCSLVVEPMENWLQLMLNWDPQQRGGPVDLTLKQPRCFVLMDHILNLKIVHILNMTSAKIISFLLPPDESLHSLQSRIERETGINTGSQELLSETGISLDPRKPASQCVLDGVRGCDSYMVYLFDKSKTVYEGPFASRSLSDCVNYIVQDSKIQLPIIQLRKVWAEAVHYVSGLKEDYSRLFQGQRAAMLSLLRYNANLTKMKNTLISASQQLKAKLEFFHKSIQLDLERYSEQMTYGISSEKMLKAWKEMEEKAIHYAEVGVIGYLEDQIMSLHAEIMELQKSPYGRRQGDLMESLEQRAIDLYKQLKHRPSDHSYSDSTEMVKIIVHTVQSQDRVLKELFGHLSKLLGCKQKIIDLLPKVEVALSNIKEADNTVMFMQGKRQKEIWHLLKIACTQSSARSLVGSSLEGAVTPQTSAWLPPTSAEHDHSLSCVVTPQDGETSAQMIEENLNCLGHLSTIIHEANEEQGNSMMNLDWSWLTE

[7] = biological target: T7, panel of 468 kinases (Homo sapiens, UniProt Q9UF33); details: EPHA6; 1 μM; read-out: % control
T7 construct: purchased KINOMEscan (ScanMAX) service
T7 sequence (Q9UF33 23-1036): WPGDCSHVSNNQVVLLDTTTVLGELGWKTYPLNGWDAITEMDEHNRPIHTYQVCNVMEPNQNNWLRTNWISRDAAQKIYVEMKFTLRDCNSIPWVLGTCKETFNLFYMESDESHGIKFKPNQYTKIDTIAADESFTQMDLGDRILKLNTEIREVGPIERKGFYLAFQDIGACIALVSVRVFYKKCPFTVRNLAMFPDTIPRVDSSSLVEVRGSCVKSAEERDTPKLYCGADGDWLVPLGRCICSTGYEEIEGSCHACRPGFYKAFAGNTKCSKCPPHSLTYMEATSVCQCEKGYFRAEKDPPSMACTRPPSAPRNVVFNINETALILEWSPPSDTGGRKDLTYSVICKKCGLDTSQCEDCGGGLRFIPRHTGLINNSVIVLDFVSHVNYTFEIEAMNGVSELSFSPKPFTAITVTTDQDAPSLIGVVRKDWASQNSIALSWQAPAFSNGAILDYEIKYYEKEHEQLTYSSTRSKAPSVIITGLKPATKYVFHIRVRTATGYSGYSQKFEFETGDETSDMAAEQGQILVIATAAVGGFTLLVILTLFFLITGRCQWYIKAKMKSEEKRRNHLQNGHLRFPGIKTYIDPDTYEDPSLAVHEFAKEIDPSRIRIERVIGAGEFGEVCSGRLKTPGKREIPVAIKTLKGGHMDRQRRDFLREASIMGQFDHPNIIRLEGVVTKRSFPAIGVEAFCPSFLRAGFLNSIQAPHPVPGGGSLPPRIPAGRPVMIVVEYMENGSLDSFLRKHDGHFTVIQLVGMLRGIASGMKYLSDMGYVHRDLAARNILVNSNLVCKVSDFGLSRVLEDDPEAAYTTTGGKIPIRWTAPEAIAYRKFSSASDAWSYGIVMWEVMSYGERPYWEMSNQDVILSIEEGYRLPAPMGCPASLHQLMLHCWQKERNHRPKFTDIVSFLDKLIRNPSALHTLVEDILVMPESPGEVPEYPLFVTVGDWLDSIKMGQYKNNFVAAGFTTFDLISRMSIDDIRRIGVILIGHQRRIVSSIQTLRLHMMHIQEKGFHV

T5 sequence (Q13464 whole entry): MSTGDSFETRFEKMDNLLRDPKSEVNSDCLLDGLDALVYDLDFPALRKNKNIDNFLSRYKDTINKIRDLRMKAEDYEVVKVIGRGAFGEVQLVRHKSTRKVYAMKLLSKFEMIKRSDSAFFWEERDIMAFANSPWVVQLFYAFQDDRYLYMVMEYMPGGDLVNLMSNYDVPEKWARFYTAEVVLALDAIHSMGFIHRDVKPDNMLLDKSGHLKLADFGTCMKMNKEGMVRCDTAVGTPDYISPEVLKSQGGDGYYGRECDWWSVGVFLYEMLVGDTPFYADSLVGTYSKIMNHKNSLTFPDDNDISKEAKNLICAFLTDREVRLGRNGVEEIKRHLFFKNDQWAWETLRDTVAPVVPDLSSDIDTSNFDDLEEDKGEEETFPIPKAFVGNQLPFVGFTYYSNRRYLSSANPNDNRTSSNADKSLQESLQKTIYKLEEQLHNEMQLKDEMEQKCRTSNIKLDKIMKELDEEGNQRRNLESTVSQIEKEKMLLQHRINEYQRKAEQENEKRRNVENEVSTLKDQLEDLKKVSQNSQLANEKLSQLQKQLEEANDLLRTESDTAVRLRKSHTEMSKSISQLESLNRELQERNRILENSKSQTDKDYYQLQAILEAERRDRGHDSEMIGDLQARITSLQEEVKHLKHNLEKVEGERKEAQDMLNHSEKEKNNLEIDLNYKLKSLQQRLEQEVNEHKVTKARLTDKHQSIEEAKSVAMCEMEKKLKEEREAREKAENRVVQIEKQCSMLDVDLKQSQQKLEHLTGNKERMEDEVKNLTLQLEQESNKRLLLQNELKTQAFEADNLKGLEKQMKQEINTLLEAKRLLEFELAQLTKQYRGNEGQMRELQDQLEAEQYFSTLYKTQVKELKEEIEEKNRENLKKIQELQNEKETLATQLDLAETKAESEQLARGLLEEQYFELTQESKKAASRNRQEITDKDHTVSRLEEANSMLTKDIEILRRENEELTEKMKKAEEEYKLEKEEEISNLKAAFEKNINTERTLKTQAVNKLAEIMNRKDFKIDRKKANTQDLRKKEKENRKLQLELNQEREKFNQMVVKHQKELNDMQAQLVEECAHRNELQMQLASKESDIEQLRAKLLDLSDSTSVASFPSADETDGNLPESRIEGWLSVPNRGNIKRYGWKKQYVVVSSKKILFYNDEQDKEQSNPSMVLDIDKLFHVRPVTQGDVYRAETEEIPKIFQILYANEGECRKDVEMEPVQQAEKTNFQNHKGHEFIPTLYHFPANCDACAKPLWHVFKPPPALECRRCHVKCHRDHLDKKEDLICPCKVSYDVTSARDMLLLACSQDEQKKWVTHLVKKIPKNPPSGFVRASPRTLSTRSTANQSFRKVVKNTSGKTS
T2 sequence (P00533 25-1210 G719S): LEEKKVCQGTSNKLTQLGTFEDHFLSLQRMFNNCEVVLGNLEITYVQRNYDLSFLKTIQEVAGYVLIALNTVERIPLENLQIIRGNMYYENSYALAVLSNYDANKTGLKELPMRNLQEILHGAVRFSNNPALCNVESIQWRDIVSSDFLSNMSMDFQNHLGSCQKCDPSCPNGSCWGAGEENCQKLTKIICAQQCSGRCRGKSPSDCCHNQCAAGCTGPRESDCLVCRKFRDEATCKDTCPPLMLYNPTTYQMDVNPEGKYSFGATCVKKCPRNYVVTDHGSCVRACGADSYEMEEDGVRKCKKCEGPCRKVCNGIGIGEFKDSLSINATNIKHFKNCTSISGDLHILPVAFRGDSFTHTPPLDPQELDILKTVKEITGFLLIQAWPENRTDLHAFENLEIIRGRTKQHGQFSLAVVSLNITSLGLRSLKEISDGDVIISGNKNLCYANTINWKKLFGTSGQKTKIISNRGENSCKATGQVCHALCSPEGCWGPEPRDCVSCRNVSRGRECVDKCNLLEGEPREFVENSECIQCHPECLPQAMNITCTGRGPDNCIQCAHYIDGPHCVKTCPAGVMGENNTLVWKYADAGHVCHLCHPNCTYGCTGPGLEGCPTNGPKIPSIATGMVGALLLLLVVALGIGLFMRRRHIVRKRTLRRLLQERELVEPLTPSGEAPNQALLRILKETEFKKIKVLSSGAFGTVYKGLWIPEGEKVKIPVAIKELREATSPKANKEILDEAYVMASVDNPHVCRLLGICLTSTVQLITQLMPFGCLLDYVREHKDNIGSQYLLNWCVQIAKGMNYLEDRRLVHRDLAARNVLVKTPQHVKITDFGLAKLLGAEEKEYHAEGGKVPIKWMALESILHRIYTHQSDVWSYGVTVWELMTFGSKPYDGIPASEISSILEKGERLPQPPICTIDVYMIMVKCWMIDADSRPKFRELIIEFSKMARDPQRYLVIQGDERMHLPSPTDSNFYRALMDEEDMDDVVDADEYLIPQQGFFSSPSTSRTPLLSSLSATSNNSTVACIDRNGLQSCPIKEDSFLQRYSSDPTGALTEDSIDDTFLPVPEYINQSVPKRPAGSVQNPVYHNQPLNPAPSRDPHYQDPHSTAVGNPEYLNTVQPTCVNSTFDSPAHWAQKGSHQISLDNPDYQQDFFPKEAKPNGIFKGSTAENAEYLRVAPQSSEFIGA
T4 sequence (P31749 whole entry): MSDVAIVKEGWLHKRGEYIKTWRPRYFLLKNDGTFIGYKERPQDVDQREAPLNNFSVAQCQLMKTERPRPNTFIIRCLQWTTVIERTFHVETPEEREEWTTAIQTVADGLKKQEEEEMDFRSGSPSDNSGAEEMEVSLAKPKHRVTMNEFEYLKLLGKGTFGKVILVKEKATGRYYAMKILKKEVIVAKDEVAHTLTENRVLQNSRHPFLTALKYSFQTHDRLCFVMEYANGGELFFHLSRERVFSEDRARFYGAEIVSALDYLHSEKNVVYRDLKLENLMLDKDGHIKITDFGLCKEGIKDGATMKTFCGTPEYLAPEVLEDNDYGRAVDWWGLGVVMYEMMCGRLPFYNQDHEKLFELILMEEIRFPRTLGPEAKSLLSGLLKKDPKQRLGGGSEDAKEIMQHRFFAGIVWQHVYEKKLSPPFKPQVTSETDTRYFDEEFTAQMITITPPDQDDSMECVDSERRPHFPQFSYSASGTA
T1 sequence (P14616 27-1297): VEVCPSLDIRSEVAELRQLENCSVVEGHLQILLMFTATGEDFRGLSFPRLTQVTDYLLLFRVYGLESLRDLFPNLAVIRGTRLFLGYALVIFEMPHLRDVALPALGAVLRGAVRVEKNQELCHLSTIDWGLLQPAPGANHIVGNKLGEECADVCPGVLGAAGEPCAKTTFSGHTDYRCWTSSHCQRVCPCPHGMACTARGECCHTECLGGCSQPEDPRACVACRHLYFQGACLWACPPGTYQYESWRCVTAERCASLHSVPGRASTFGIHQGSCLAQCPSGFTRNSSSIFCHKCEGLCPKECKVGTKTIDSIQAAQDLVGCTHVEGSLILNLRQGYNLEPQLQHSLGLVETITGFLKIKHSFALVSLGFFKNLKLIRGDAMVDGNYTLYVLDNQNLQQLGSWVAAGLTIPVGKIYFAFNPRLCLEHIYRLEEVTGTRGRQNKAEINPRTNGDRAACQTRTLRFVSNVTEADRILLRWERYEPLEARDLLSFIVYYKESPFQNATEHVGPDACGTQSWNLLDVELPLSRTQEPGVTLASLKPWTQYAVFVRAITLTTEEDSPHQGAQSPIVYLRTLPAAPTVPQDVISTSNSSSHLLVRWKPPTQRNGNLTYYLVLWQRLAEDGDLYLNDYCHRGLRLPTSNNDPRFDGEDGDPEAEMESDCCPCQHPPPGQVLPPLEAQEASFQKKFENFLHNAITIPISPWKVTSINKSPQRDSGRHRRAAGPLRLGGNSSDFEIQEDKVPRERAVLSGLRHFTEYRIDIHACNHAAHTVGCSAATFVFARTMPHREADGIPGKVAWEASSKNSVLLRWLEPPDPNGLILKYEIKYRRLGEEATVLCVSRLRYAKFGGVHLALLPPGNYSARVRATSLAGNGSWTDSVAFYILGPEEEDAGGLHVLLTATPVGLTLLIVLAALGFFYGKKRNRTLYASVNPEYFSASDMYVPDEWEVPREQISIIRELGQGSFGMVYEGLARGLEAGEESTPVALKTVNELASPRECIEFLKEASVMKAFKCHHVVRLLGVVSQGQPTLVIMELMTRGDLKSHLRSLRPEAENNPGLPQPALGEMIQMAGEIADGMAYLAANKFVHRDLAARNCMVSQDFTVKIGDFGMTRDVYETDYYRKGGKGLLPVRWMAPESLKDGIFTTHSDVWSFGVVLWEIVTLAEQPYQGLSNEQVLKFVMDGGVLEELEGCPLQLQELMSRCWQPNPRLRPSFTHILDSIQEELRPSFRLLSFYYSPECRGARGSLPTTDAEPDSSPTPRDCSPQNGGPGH

| SMILES | remaining binding at 1 µM [1] | remaining binding at 1 µM [2] | remaining binding at 1 µM [3] | remaining binding at 1 µM [4] | remaining binding at 1 µM [5] | remaining binding at 1 µM [6] | remaining binding at 1 µM [7] |
| --- | --- | --- | --- | --- | --- | --- | --- |
| CNc1nc(Nc2ccc(S(=O)(=O)N3CCC(N4CCOCC4)CC3)cc2OC)nc2[nH]cc(Cl)c12 [Compound 12, 5-chloro-N2-(2-methoxy-4-((4-morpholinopiperidin-1-yl)sulfonyl)phenyl)-N4-methyl-7H-pyrrolo[2,3-d]pyrimidine-2,4-diamine] | 85% | 99% | 100% | 100% | 100% | 76% | 100% |
| CNc1nc(Nc2ccc(C(=O)N3CCC(N4CCOCC4)CC3)c3c2OCO3)nc2[nH]cc(Cl)c12 [Compound 75, (7-((5-chloro-4-(methylamino)-7H-pyrrolo[2,3-d]pyrimidin-2-yl)amino)benzo[d][1,3]dioxol-4-yl)(4-morpholinopiperidin-1-yl)methanone] | 88% | 100% | 100% | 100% | 35% | 65% | 100% |
| CNc1nc(Nc2ccc(P3(=O)CCN(C4CCOCC4)CC3)cc2OC)nc2[nH]cc(Cl)c12 [Compound 77, 4-(4-((5-chloro-4-(methylamino)-7H-pyrrolo[2,3-d]pyrimidin-2-yl)amino)-3-methoxyphenyl)-1-(tetrahydro-2H-pyran-4-yl)-1,4-azaphosphinane 4-oxide] | 62% | 100% | 100% | 100% | 95% | 81% | 100% |
